From ChEMBL document CHEMBL1201862, “PubChem BioAssay data set” (2004)
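Step 1: Grow cells in 96-well plates. Step 2: Expose to compound for 48 hours at 5 concentrations. Step 3: Interpolate endpoints linearly; if unreached, use highest concentration. At the GI50, growth is halved.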 The source made the active and inactive calls. Cut-off read from the data, not from the text of the source: active = GI50 up to about 1.1 µM and inactive = higher.

Experiments:
Assay in all cases: NCI-60 cell line screen, 48 h
UO-31 = tested on: UO-31
HL-60 = tested on: HL-60
HCT-15 = tested on: HCT-15
K562 = tested on: K562
SF-295 = tested on: SF-295
SF-539 = tested on: SF-539
SK-MEL-5 = tested on: SK-MEL-5
HCT-116 = tested on: HCT-116
786-0 = tested on: 786-0
HOP-62 = tested on: HOP-62
TK-10 = tested on: TK-10
A549 = tested on: A549
KM-20L2 = tested on: KM-20L2
SK-MEL-2 = tested on: SK-MEL-2
SK-OV-3 = tested on: SK-OV-3
NCI-H460 = tested on: NCI-H460
OVCAR-5 = tested on: OVCAR-5
DMS-114 = tested on: DMS-114
OVCAR-8 = tested on: OVCAR-8
OVCAR-3 = tested on: OVCAR-3
IGROV-1 = tested on: IGROV-1
COLO 205 = tested on: COLO 205
U-251 = tested on: U-251
SNB-78 = tested on: SNB-78
MOLT-4 = tested on: MOLT-4
XF498 = tested on: XF498
UACC-62 = tested on: UACC-62
NCI-H23 = tested on: NCI-H23
DMS-273 = tested on: DMS-273
OVCAR-4 = tested on: OVCAR-4
HT-29 = tested on: HT-29
RPMI-8226 = tested on: RPMI-8226
M14 = tested on: M14
Malme-3M = tested on: Malme-3M
RXF 631 = tested on: RXF 631
HCC 2998 = tested on: HCC 2998
NCI-H522 = tested on: NCI-H522
SNB-75 = tested on: SNB-75
A498 = tested on: A498
HOP-92 = tested on: HOP-92
NCI-H226 = tested on: NCI-H226
M19-MEL = tested on: M19-MEL
LXFL 529 = tested on: LXFL 529
UACC-257 = tested on: UACC-257
SN12C = tested on: SN12C
DLD-1 = tested on: DLD-1
HOP-18 = tested on: HOP-18
SNB-19 = tested on: SNB-19
EKVX = tested on: EKVX
SK-MEL-28 = tested on: SK-MEL-28
SW-620 = tested on: SW-620
SF-268 = tested on: SF-268
CCRF-CEM = tested on: CCRF-CEM
CAKI-1 = tested on: CAKI-1
KM12 = tested on: KM12
ACHN = tested on: ACHN
LOX IMVI = tested on: LOX IMVI
RXF 393 = tested on: RXF 393

COC(=O)/C=C1\CCC2[C@@H](C(=O)CC3[C@]2(C)CCC[C@@]3(C)C(=O)OC)C1C (some centres undefined)
GI50 (UO-31): 21.7 µM (inactive) | GI50 (HL-60): 13.1 µM (inactive) | GI50 (HCT-15): 29.8 µM | GI50 (K562): 15 µM (inactive) | GI50 (SF-295): 25.6 µM (inactive) | GI50 (SF-539): 25.2 µM (inactive) | GI50 (SK-MEL-5): 13.5 µM (inactive) | GI50 (HCT-116): 18.5 µM (inactive) | GI50 (786-0): 31.3 µM (inactive) | GI50 (HOP-62): 28.9 µM (inactive) | GI50 (TK-10): 19.5 µM (inactive) | GI50 (A549): 20.2 µM (inactive) | GI50 (KM-20L2): 29.3 µM (inactive) | GI50 (SK-MEL-2): 18.2 µM (inactive) | GI50 (SK-OV-3): 37.9 µM (inactive) | GI50 (NCI-H460): 15.7 µM (inactive) | GI50 (OVCAR-5): 33 µM (inactive) | GI50 (DMS-114): 16.1 µM (inactive) | GI50 (OVCAR-8): 15.1 µM (inactive) | GI50 (OVCAR-3): 22.7 µM (inactive) | GI50 (IGROV-1): 24.6 µM (inactive) | GI50 (COLO 205): 17.3 µM (inactive) | GI50 (U-251): 33.3 µM (inactive) | GI50 (SNB-78): 29.2 µM (inactive) | GI50 (MOLT-4): 6.37 µM (inactive) | GI50 (XF498): 13.7 µM (inactive) | GI50 (UACC-62): 13.6 µM (inactive) | GI50 (NCI-H23): > 10 µM (inactive) | GI50 (DMS-273): 22 µM (inactive) | GI50 (OVCAR-4): 22.5 µM (inactive) | GI50 (HT-29): 24 µM (inactive) | GI50 (RPMI-8226): 3.93 µM (inactive) | GI50 (M14): 17.9 µM (inactive) | GI50 (Malme-3M): 21.1 µM (inactive) | GI50 (RXF 631): 25.4 µM (inactive) | GI50 (HCC 2998): 34.6 µM (inactive) | GI50 (NCI-H522): 16.5 µM (inactive) | GI50 (SNB-75): 18.5 µM (inactive) | GI50 (A498): 34.7 µM (inactive) | GI50 (HOP-92): 21 µM (inactive) | GI50 (NCI-H226): 20 µM (inactive) | GI50 (M19-MEL): 19.2 µM (inactive) | GI50 (LXFL 529): 8.73 µM (inactive) | GI50 (UACC-257): 17.9 µM (inactive) | GI50 (SN12C): 24.8 µM (inactive) | GI50 (DLD-1): 29.2 µM (inactive) | GI50 (HOP-18): 29.4 µM (inactive) | GI50 (SNB-19): 32.4 µM (inactive) | GI50 (EKVX): 27.3 µM (inactive) | GI50 (SK-MEL-28): 16.3 µM (inactive) | GI50 (SW-620): 26.6 µM (inactive) | GI50 (SF-268): 19.7 µM (inactive) | GI50 (CCRF-CEM): 9.2 µM (inactive) | GI50 (CAKI-1): 30.1 µM (inactive) | GI50 (KM12): 17.1 µM (inactive) | GI50 (ACHN): 22.5 µM (inactive)

C[C@]12CCC(=O)CC1CCCC2=O (some centres undefined)
GI50 (UO-31): > 100 µM (inactive) | GI50 (HL-60): > 100 µM (inactive) | GI50 (HCT-15): > 100 µM | GI50 (K562): > 100 µM (inactive) | GI50 (SF-295): > 100 µM (inactive) | GI50 (SF-539): > 100 µM (inactive) | GI50 (SK-MEL-5): > 100 µM (inactive) | GI50 (HCT-116): > 100 µM (inactive) | GI50 (786-0): > 100 µM (inactive) | GI50 (HOP-62): > 100 µM (inactive) | GI50 (TK-10): > 100 µM (inactive) | GI50 (A549): > 100 µM (inactive) | GI50 (SK-MEL-2): > 100 µM (inactive) | GI50 (SK-OV-3): > 100 µM (inactive) | GI50 (NCI-H460): > 100 µM (inactive) | GI50 (DMS-114): > 100 µM (inactive) | GI50 (OVCAR-8): > 100 µM (inactive) | GI50 (OVCAR-3): > 100 µM (inactive) | GI50 (IGROV-1): > 100 µM (inactive) | GI50 (COLO 205): > 100 µM (inactive) | GI50 (U-251): > 100 µM (inactive) | GI50 (SNB-78): > 100 µM (inactive) | GI50 (MOLT-4): > 100 µM (inactive) | GI50 (XF498): > 100 µM (inactive) | GI50 (UACC-62): > 100 µM (inactive) | GI50 (NCI-H23): > 100 µM (inactive) | GI50 (DMS-273): > 100 µM (inactive) | GI50 (OVCAR-4): > 100 µM (inactive) | GI50 (HT-29): > 100 µM (inactive) | GI50 (RPMI-8226): > 100 µM (inactive) | GI50 (M14): > 100 µM (inactive) | GI50 (Malme-3M): > 100 µM (inactive) | GI50 (RXF 631): > 100 µM (inactive) | GI50 (LOX IMVI): > 100 µM (inactive) | GI50 (HCC 2998): > 100 µM (inactive) | GI50 (NCI-H522): > 100 µM (inactive) | GI50 (SNB-75): > 100 µM (inactive) | GI50 (A498): > 100 µM (inactive) | GI50 (HOP-92): > 100 µM (inactive) | GI50 (M19-MEL): > 100 µM (inactive) | GI50 (LXFL 529): > 100 µM (inactive) | GI50 (UACC-257): > 100 µM (inactive) | GI50 (SN12C): > 100 µM (inactive) | GI50 (DLD-1): > 100 µM (inactive) | GI50 (SNB-19): > 100 µM (inactive) | GI50 (RXF 393): > 100 µM (inactive) | GI50 (EKVX): > 100 µM (inactive) | GI50 (SK-MEL-28): > 100 µM (inactive) | GI50 (SW-620): > 100 µM (inactive) | GI50 (SF-268): > 100 µM (inactive) | GI50 (CCRF-CEM): > 100 µM (inactive) | GI50 (CAKI-1): > 100 µM (inactive) | GI50 (KM12): > 100 µM (inactive)
